# Patent US9505775B2, “Inhibitors of cytomegalovirus” (Boehringer Ingelheim International GmbH, priority 2012, dated 2016)
# Biological target: T1, purified recombinant HCMV polymerase from strain AD169 (UL54) (Human cytomegalovirus, UniProt P08546)
# T1 construct: made in house; host or cells: Sf21 insect cells (baculovirus)
# Assay: HCMV Polymerase LANCE TR-FRET Assay
# Type: biochemical
# Conditions: 2 nM GST-UL54, 37° C. for 30 min; read-out: IC50 (nM) Example B
# Description: This non-radiometric assay determines the enzymatic activity of purified recombinant HCMV polymerase from strain AD169 (UL54) using a Digoxigenin-labeled oligonucleotide priming a heteropolymeric template. The enzymatic activity is determined by incorporating Biotin-dUTP in the nascent complementary strand. The signal is generated by Fluorescence Resonance Energy Transfer from the donor (Anti-Digoxigenin-Europium Chelate binding with the primer) to the acceptor Streptavidin-AlloPhycoCyanin (SA-APC) binding to the biotin of the labeled nucleotides incorporated in proximity.
# Serial dilutions of the DMSO stock compound solution are performed using DMSO in columns 2-11 and 14-23. DMSO alone is present in columns 1, 12, 13 and 24. Three μL of the DMSO serial dilutions is transferred and diluted using 21 μL of compound dilution buffer (10 mM Hepes pH 7.5, 25 mM KCl, 5 mM MgCl2, 1 mM TCEP) to obtain 12.5% DMSO. 4 μL per well of the 12.5% DMSO serial dilution compound solution is added to the assay plate. The plate is centrifuged at 200×g for 30 sec.
# The assay conditions are the following: 10 mM HEPES pH 7.5, 25 mM KCl, 7.5 mM NaCl, 5 mM MgCl2, 0.2 mg BSA/mL, 1 mM TCEP, 1.5% glycerol, 5% DMSO, 235 nM dATP, 350 nM dCTP, 350 nM dGTP, 235 nM dTTP, 12 nM biotin-16-dUTP, 23.5 nM Dig-primer/template, 2 nM GST-UL54. The assay volume is 10 μL. […] The primer and template are annealed in 10 mM Tris-HCl pH 7.5, 50 mM NaCl at a respective concentration of 50 μM. They are incubated at 95° C. for 5 min in a dry batch block. The block is removed from the dry bath and allowed to cool to RT. Aliquots are made and stored at −20° C.
# To perform the assay, 3 μL of the enzyme solution is added to columns 2-12 and 14-24. The enzyme is substituted by the blank solution (b solution without enzyme) for columns 1 and 13 (blanks). The plate is centrifuged at 200×g for 30 sec. 3 μL of substrate solution is added to each well. The plate is centrifuged at 200×g for 30 sec. Plates are incubated at 37° C. for 30 min. 5 μL of conjugate solution is added (25 mM Hepes pH 7.5, 0.1 M NaCl, 0.25% Tween-20, 1 mg/mL BSA, 12 mM EDTA, 24 nM Sreptavidin-APC, 342 ng/mL Anti-Dig-Europium). The plates are incubated at RT for at least 120 min. The signal is read on the Envision plate reader (Perkin-Elmer) or equivalent.
# T1 sequence (P08546 whole entry): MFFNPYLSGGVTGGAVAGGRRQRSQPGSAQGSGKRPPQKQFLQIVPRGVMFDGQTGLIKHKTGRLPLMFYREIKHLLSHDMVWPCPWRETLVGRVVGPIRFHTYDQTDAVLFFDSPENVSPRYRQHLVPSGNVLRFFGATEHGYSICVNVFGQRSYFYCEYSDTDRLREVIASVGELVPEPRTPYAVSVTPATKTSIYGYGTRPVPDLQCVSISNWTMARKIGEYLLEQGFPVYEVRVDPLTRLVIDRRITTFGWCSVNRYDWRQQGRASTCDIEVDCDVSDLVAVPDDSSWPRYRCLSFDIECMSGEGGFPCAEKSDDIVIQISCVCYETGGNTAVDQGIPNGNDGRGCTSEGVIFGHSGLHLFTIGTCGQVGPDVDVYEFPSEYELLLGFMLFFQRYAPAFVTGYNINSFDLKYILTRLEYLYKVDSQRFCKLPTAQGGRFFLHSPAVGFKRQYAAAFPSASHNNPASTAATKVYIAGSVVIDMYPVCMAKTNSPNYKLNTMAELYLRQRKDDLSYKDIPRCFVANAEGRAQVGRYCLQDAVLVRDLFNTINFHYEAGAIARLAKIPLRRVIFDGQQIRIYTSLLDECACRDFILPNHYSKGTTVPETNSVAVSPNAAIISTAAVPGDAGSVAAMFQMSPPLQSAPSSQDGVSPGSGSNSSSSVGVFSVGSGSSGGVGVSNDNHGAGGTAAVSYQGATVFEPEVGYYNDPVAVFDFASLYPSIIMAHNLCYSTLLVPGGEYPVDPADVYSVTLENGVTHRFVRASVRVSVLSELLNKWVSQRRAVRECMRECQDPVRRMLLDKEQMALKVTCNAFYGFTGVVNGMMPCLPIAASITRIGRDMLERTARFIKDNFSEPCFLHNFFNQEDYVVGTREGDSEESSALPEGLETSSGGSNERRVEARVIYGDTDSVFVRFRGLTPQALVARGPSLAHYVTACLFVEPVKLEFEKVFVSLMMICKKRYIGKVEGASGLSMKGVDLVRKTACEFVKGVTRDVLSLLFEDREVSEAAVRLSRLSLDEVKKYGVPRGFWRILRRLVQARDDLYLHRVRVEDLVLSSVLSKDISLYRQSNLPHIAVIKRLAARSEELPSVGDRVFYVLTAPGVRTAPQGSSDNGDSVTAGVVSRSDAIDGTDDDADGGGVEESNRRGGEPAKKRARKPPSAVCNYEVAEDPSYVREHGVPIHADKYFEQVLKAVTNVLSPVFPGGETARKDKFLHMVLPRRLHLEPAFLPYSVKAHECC
row,Compound,IC50 [nM]
1,Cc1c(Cn2ccnc2C)ccc2c1C(C)(C)CN2C(=O)[C@H]1CC(=O)N(c2cccc(C#N)c2)C1 [11r1],480
2,"CC1CN(C(=O)[C@H]2CC(=O)N(c3cccc(Cl)c3)C2)c2ccc(CCc3cncnc3)cc21 (single isomer, unassigned) [11hh1]",150
3,CC1(C)CN(C(=O)[C@H]2CC(=O)N(c3cccc(C#N)c3)C2)c2ccc(CCc3cccc(O)c3)cc21 [11ccc1],87
4,CC1(C)CN(C(=O)[C@H]2CC(=O)N(c3cccc(C#N)c3)C2)c2ccc(CNc3cncnc3)cc21 [31a1],86
5,Cc1ncc(Cc2ccc3c(c2)C(C)(C)CN3C(=O)C2CC(=O)N(c3cccc(C#N)c3)C2)o1 (stereo not drawn) [22s1],550
6,Cn1cncc1Cc1ccc2c(c1)CCN2C(=O)[C@H]1CC(=O)N(c2cccc(C#N)c2)C1 [22j1],480
7,Cc1nccn1Cc1ccc2c(c1F)C(C)(C)CN2C(=O)[C@H]1CC(=O)N(c2cccc(C#N)c2)C1 [13g1],2100
8,CC1(C)CN(C(=O)[C@H]2CC(=O)N(c3cccc(C#N)c3)C2)c2ccc(CCc3ccccn3)cc21 [11bbb1],310
9,CC1(C)CN(C(=O)[C@H]2CC(=O)N(c3cccc(C#N)c3)C2)c2ccc(Cn3cncc3C(=O)O)cc21 [24d1],550
10,CNc1ncc(CCc2ccc3c(c2)C(C)(C)CN3C(=O)[C@H]2CC(=O)N(c3cccc(C#N)c3)C2)cn1 [17o1],240
11,N#Cc1cccc(N2C[C@@H](C(=O)N3CC4(CC4)c4cc(Cc5cncnc5)ccc43)CC2=O)c1 [22u1],570
12,Cc1ccc(CCc2ccc3c(c2)C(C)(C)CN3C(=O)[C@H]2CC(=O)N(c3cccc(C#N)c3)C2)cn1 [11ss1],130
13,CC1(C)CN(C(=O)C2CC(=O)N(c3cccc(C#N)c3)C2)c2ccc(COc3cncnc3)cc21 (stereo not drawn) [13w1],840
14,N#Cc1cccc(N2C[C@@H](C(=O)N3CCc4nc(CCn5ccnc5)ccc43)CC2=O)c1 [17n1],540
15,CC1(C)CN(C(=O)[C@H]2CC(=O)N(c3cccc(C#N)c3)C2)c2ccc(Cn3cnnc3)cc21 [11vv1],160
16,Cc1nccn1Cc1cc2c(cc1C(F)(F)F)N(C(=O)[C@H]1CC(=O)N(c3cccc(C#N)c3)C1)CC2(C)C [11s1],590
17,Cn1cncc1CCc1ccc2c(c1)C(C)(C)CN2C(=O)[C@H]1CC(=O)N(c2cccc(C#N)c2)C1 [19c2],420
18,N#Cc1cccc(N2C[C@@H](C(=O)N3CC4(CCOCC4)c4cc(Cn5ccnc5)ccc43)CC2=O)c1 [13t1],730
19,N#Cc1cccc(N2C[C@@H](C(=O)N3CC4(CC4)c4cc(Cn5ccnc5)ccc43)CC2=O)c1 [13r1],360
20,"CC1CN(C(=O)[C@H]2CC(=O)N(c3cccc(C#N)c3)C2)c2ccc(CCc3cncnc3)cc21 (single isomer, unassigned) [11dd1]",71
21,Cn1cc(CCc2ccc3c(c2)C(C)(C)CN3C(=O)[C@H]2CC(=O)N(c3cccc(C#N)c3)C2)cn1 [11v1],510
22,CC1(C)CN(C(=O)[C@H]2CC(=O)N(c3cccc(C#N)c3)C2)c2ccc(CCc3cncc(N)c3)cc21 [11ddd1],38
23,CC1(C)CN(C(=O)[C@H]2CC(=O)N(c3cccc(C#N)c3)C2)c2ccc(CCc3cncnc3)cc21 [11f1],95
24,CC1(C)CN(C(=O)[C@H]2CC(=O)N(c3cccc(C#N)c3)C2)c2ccc(CCc3cncc(C#N)c3)cc21 [11t1],370
25,CC1(C)CN(C(=O)[C@H]2CC(=O)N(c3cccc(C#N)c3)C2)c2cc(Cl)c(CCn3ccnc3)cc21 [17b1],330
26,CC(C)n1cnnc1CN(C)Cc1ccc2c(c1)CCN2C(=O)C1CC(=O)N(c2cccc(C#N)c2)C1 (stereo not drawn) [16c3],600
27,CC1(C)CN(C(=O)[C@H]2CC(=O)N(c3cccc(Cl)c3)C2)c2ccc(CCc3cncnc3)cc21 [11h1],94

row,Compound,IC50 [nM]
1,CC1(C)CN(C(=O)[C@H]2CC(=O)N(c3cccc(C#N)c3)C2)c2ccc(CCn3cncn3)cc21 [11zz1],99
2,Cc1cc2c(cc1Cn1ccnc1C)C(C)(C)CN2C(=O)[C@H]1CC(=O)N(c2cccc(C#N)c2)C1 [11q1],49
3,N#Cc1cccc(N2C[C@@H](C(=O)N3CCc4cc(Cn5ccnc5)ccc43)CC2=O)c1 [13a1],150
4,CC1(C)CN(C(=O)C2CC(=O)N(c3cccc(C#N)c3)C2)c2cc(Cl)c(Cn3cnnc3)cc21 (stereo not drawn) [13l1],230
5,Cc1ncc(Cc2ccc3c(c2)C(C)(C)CN3C(=O)[C@H]2CC(=O)N(c3cccc(C#N)c3)C2)o1 [22w1],470
6,CC(=O)N1CCC2(CC1)CN(C(=O)[C@H]1CC(=O)N(c3cccc(C#N)c3)C1)c1ccc(Cn3ccnc3C)cc12 [13v1],1600
7,Cc1ncc(Cc2ccc3c(c2)C2(CC2)CN3C(=O)[C@H]2CC(=O)N(c3cccc(C#N)c3)C2)o1 [22v1],790
8,CC1(C)CN(C(=O)[C@H]2CC(=O)N(c3cccc(C#N)c3)C2)c2ccc(Cn3ccnc3CC(=O)O)cc21 [24a1],690
9,Cc1nccn1Cc1cc2c(cc1F)N(C(=O)[C@H]1CC(=O)N(c3cccc(C#N)c3)C1)CC2(C)C [13f1],140
10,"CC1CN(C(=O)[C@H]2CC(=O)N(c3cccc(C#N)c3)C2)c2ccc(CCn3ccnc3)cc21 (single isomer, unassigned) [11aa1]",100
11,CC(=O)N1CCC2(CC1)CN(C(=O)[C@H]1CC(=O)N(c3cccc(C#N)c3)C1)c1ccc(CN3CCOCC3)cc12 [11a1],580
12,Cc1noc(C)c1Cc1ccc2c(c1)C(C)(C)CN2C(=O)[C@H]1CC(=O)N(c2cccc(C#N)c2)C1 [22bb1],350
13,CC(=O)N1CCC2(CC1)CN(C(=O)[C@H]1CC(=O)N(c3cccc(C#N)c3)C1)c1ccc(Cc3cncnc3)cc12 [22z1],1300
14,Cc1nccn1Cc1cc2c(cc1Cl)N(C(=O)[C@H]1CC(=O)N(c3cccc(C#N)c3)C1)CC2(C)C [13x1],50
15,CC1(C)CN(C(=O)[C@H]2CC(=O)N(c3cccc(C#N)c3)C2)c2ccc(Cc3cnoc3)cc21 [22a2],260
16,"CC1CN(C(=O)[C@H]2CC(=O)N(c3cccc(Cl)c3)C2)c2ccc(CCn3ccnc3)cc21 (single isomer, unassigned) [11ee1]",63
17,"Cc1ncc(Cc2ccc3c(c2)C(C)(CO)CN3C(=O)[C@H]2CC(=O)N(c3cccc(Cl)c3)C2)o1 (single isomer, unassigned) [11qq1]",750
18,Cc1oncc1Cc1ccc2c(c1)CCN2C(=O)[C@H]1CC(=O)N(c2cccc(C#N)c2)C1 [22dd1],290
19,CC(c1ccc2c(c1)C(C)(C)CN2C(=O)[C@H]1CC(=O)N(c2cccc(C#N)c2)C1)n1ccnc1 (mixture of isomers) [11rr1],350
20,CC1(C)CN(C(=O)[C@H]2CC(=O)N(c3cccc(Cl)c3)C2)c2ccc(Cn3ccnc3)cc21 [13d1],110
21,"Cc1nccn1Cc1ccc2c(c1)C(C)CN2C(=O)[C@H]1CC(=O)N(c2cccc(C#N)c2)C1 (single isomer, unassigned) [13o1]",3200
22,"Cn1cncc1CCc1ccc2c(c1)C(C)(CO)CN2C(=O)[C@H]1CC(=O)N(c2cccc(Cl)c2)C1 (single isomer, unassigned) [11oo1]",1600
23,CC1(C)CN(C(=O)[C@H]2CC(=O)N(c3cccc(C#N)c3)C2)c2ccc(Cc3ccncc3)cc21 [22o1],2900
24,CC1(C)CN(C(=O)[C@H]2CC(=O)N(c3cccc(C#N)c3)C2)c2ccc(CCn3ccnc3)cc21 [11e1],240
25,CC1(C)CN(C(=O)[C@H]2CC(=O)N(c3cccc(C#N)c3)C2)c2ccc(Cc3cncnc3)cc21 [22l1.2],380
26,CC1(C)CN(C(=O)[C@H]2CC(=O)N(c3cccc(C#N)c3)C2)c2ccc(CCc3ccccc3)cc21 [19b2],990
27,CC1(C)CN(C(=O)[C@H]2CC(=O)N(c3cccc(Cl)c3)C2)c2ccc(CCn3ccnc3)cc21 [11g1],200
